The results in this text go back to patent US11377451B2, “Compositions and methods for treating cancer” (The Regents of the University of California, priority 2019, dated 2022).

One assay concerns GBM39. Put plainly: GI50 assay (Cell Titer Glo proliferation, 3 days). It counts as cell-based, human. The conditions noted are these: Homo sapiens, 72 h; GBM39, 3 days.
The next assay has as its system HK301. Put plainly: GI50 assay (Cell Titer Glo proliferation, 3 days). It counts as cell-based, human. The conditions noted are these: Homo sapiens, 72 h; HK301, 3 days; read-out: HK301 GI50.

As for `OC1COc2cc3ncnc(Nc4cccc(Br)c4F)c3cc2O1` (racemic) [JGK050, (±)-4-(3-Bromo-2-fluoroanilino)-7,8-dihydro[1,4]dioxino[2,3-g]quinazolin-7-ol], the GI50 in the assay with GBM39 worked out at 3.57 µM; in the assay on HK301, 1.16 µM.
`CC1Oc2cc3ncnc(Nc4cccc(Br)c4F)c3cc2OC1C` (racemic) [JGK051, (±)-cis- and (±)-trans-N-(3-Bromo-2-fluorophenyl)-7,8-dimethyl-7,8-dihydro[1,4]dioxino[2,3-g]quinazolin-4-amine]: the GI50 in the assay with GBM39 stood at 24.1 µM; with HK301, 8.25 µM.
As for `C[C@@H]1Oc2cc3c(Nc4cccc(Br)c4F)ncnc3cc2O[C@@H]1C` (racemic) [JGK052, (±)-cis-N-(3-Bromo-2-fluorophenyl)-7,8-dimethyl-7,8-dihydro[1,4]dioxino[2,3-g]quinazolin-4-amine], the figures for the GI50 in the assay on GBM39 and in the assay with HK301 were 9.22 µM and 3.87 µM, respectively.
For `C[C@@H]1Oc2cc3ncnc(Nc4cccc(Br)c4F)c3cc2O[C@H]1C` (racemic) [JGK059, (±)-trans-N-(3-Bromo-2-fluorophenyl)-7,8-dimethyl-7,8-dihydro[1,4]dioxino[2,3-g]quinazolin-4-amine], the GI50 with GBM39 was found to be 11.2 µM; in the assay on HK301 it was 8.11 µM.
The like results for `C=CC1COc2cc3ncnc(Nc4cccc(Br)c4F)c3cc2O1` (racemic) [JGK062, (±)-N-(3-Bromo-2-fluorophenyl)-7-ethenyl-7,8-dihydro[1,4]dioxino[2,3-g]quinazolin-4-amine] were, in that order, 5.86 µM and 3.78 µM.
On to `Fc1c(Br)cccc1Nc1ncnc2cc3c(cc12)OC(CCN1CCOCC1)CO3` (racemic) [JGK064, (±)-N-(3-Bromo-2-fluorophenyl)-7-[2-(morpholin-4-yl)ethyl]-7,8-dihydro[1,4]dioxino[2,3-g]quinazolin-4-amine], for which the GI50 stood at 4 µM in the assay on GBM39 and 1.21 µM in the assay on HK301.
Take `Fc1c(Br)cccc1Nc1ncnc2cc3c(cc12)OC(CN1CCCCC1)CO3` (racemic) [JGK065, (±)-N-(3-Bromo-2-fluorophenyl)-7-[(piperidin-1-yl)methyl]-7,8-dihydro[1,4]dioxino[2,3-g]quinazolin-4-amine]: the concentration for 50% growth inhibition (GI50) in the assay with GBM39 is 7.34 µM; in the assay on HK301 it was 3.43 µM.
Turning to `Fc1c(Br)cccc1Nc1ncnc2cc3c(cc12)OC(CN1CCCC1)CO3` (racemic) [JGK067, (±)-N-(3-Bromo-2-fluorophenyl)-7-[(pyrrolidin-1-yl)methyl]-7,8-dihydro[1,4]dioxino[2,3-g]quinazolin-4-amine], the values for the GI50 in the assay on GBM39 and in the assay on HK301 were 2.2 µM and 0.898 µM, respectively.
For the compound `CN(C)CCC1COc2cc3ncnc(Nc4cccc(Br)c4F)c3cc2O1` (racemic) [JGK069, (±)-N-(3-Bromo-2-fluorophenyl)-7-[2-(dimethylamino)ethyl]-7,8-dihydro[1,4]dioxino[2,3-g]quinazolin-4-amine], the GI50 in the assay on GBM39 turned out to be 2.17 µM; in the assay on HK301, 0.659 µM.
As to `CN1CCN(CCC2COc3cc4ncnc(Nc5cccc(Br)c5F)c4cc3O2)CC1` (racemic) [JGK070, (±)-N-(3-Bromo-2-fluorophenyl)-7-[2-(4-methylpiperazin-1-yl)ethyl]-7,8-dihydro[1,4]dioxino[2,3-g]quinazolin-4-amine], the GI50 in the assay with GBM39 was determined as 3.33 µM; in the assay with HK301 it was 1.41 µM.
On to `CN1CCN(CC2COc3cc4ncnc(Nc5cccc(Cl)c5F)c4cc3O2)CC1` (racemic) [JGK075, (±)-N-(3-Chloro-2-fluorophenyl)-7-[(4-methylpiperazin-1-yl)methyl]-7,8-dihydro[1,4]dioxino [2,3-g]quinazolin-4-amine], for which the GI50 in the assay with GBM39 is 4 µM; with HK301, 1.18 µM.
In the case of `Fc1c(Br)cccc1Nc1ncnc2cc3c(cc12)OCC(CN1CCOCC1)O3` (racemic) [JGK076, (±)-N-(3-Bromo-2-fluorophenyl)-8-[(morpholin-4-yl)methyl]-7,8-dihydro[1,4]dioxino[2,3-g]quinazolin-4-amine], the GI50 was 16.9 µM in the assay on GBM39 and 6.16 µM in the assay on HK301.
Regarding `CN(C)CC1COc2cc3c(Nc4cccc(Br)c4F)ncnc3cc2O1` (racemic) [JGK077, (±)-N-(3-Bromo-2-fluorophenyl)-8-[(dimethylamino)methyl]-7,8-dihydro[1,4]dioxino[2,3-g]quinazolin-4-amine], the GI50 in the assay on GBM39 is 16.7 µM; in the assay on HK301 it was 6.84 µM.
Consider `CN1CCN(CC2COc3cc4c(Nc5cccc(Br)c5F)ncnc4cc3O2)CC1` (racemic) [JGK078, (±)-N-(3-Bromo-2-fluorophenyl)-8-[(4-methylpiperazin-1-yl)methyl]-7,8-dihydro[1,4]dioxino[2,3-g]quinazolin-4-amine], for which the GI50 with GBM39 came to 5.76 µM; with HK301, 2.03 µM.
`Fc1c(Br)cccc1Nc1ncnc2cc3c(cc12)OCC(CN1CCCC1)O3` (racemic) [JGK079, (±)-N-(3-Bromo-2-fluorophenyl)-8-[(pyrrolidin-1-yl)methyl]-7,8-dihydro[1,4]dioxino[2,3-g]quinazolin-4-amine]: the GI50 with GBM39 is 15.7 µM; in the assay with HK301 it was 7.21 µM.
As to `Fc1c(Br)cccc1Nc1ncnc2cc3c(cc12)OCC(CN1CCCCC1)O3` (racemic) [JGK080, (±)-N-(3-Bromo-2-fluorophenyl)-8-[(piperidin-1-yl)methyl]-7,8-dihydro[1,4]dioxino[2,3-g]quinazolin-4-amine], the GI50 in the assay with GBM39 came out at 14.5 µM; in the assay with HK301, 7.37 µM.
`Fc1c(Br)cccc1Nc1ncnc2cc3c(cc12)OC(CCN1CCCC1)CO3` (racemic) [JGK084, (±)-N-(3-Bromo-2-fluorophenyl)-7-[2-(pyrrolidin-1-yl)ethyl]-7,8-dihydro[1,4]dioxino[2,3-g]quinazolin-4-amine]: the values for the GI50 in the assay on GBM39 and with HK301 were 5.64 µM and 1.83 µM, respectively.
`Fc1c(Br)cccc1Nc1ncnc2cc3c(cc12)OC(CCN1CCCCC1)CO3` (racemic) [JGK085, (±)-N-(3-Bromo-2-fluorophenyl)-7-[2-(piperidin-1-yl)ethyl]-7,8-dihydro[1,4]dioxino[2,3-g]quinazolin-4-amine]: the GI50 amounted to 2.62 µM in the assay with GBM39 and 1.02 µM with HK301.
Regarding `Fc1c(Br)cccc1Nc1ncnc2cc3c(cc12)OCC(CCN1CCOCC1)O3` (racemic) [JGK086, (±)-N-(3-Bromo-2-fluorophenyl)-8-[2-(morpholin-4-yl)ethyl]-7,8-dihydro[1,4]dioxino[2,3-g]quinazolin-4-amine], the GI50 with GBM39 is 4.45 µM; in the assay on HK301 it was 2.56 µM.
For `CN(C)CCC1COc2cc3c(Nc4cccc(Br)c4F)ncnc3cc2O1` (racemic) [JGK087, (±)-N-(3-Bromo-2-fluorophenyl)-8-[2-(dimethylamino)ethyl]-7,8-dihydro[1,4]dioxino[2,3-g]quinazolin-4-amine], the GI50 worked out at 5.26 µM in the assay on GBM39 and 3.74 µM in the assay on HK301.
As for `CN1CCN(CCC2COc3cc4c(Nc5cccc(Br)c5F)ncnc4cc3O2)CC1` (racemic) [JGK088, (±)-N-(3-Bromo-2-fluorophenyl)-8-[2-(4-methylpiperazin-1-yl)ethyl]-7,8-dihydro[1,4]dioxino[2,3-g]quinazolin-4-amine], the GI50 came to 4.06 µM with GBM39 and 2.13 µM in the assay with HK301.
On to `Fc1c(Br)cccc1Nc1ncnc2cc3c(cc12)OCC(CCN1CCCC1)O3` (racemic) [JGK089, (±)-N-(3-Bromo-2-fluorophenyl)-8-[2-(pyrrolidin-1-yl)ethyl]-7,8-dihydro[1,4]dioxino[2,3-g]quinazolin-4-amine], for which the concentration for 50% growth inhibition (GI50) was determined as 5.09 µM in the assay on GBM39 and 3.16 µM in the assay with HK301.
For `Fc1c(Br)cccc1Nc1ncnc2cc3c(cc12)OCC(CCN1CCCCC1)O3` (racemic) [JGK090, (±)-N-(3-Bromo-2-fluorophenyl)-8-[2-(piperidin-1-yl)ethyl]-7,8-dihydro[1,4]dioxino[2,3-g]quinazolin-4-amine], the GI50 in the assay with GBM39 came out at 4.33 µM; with HK301, 2.39 µM.
In the case of `C#Cc1cccc(N(C(=O)OC(C)(C)C)C2=NC(OC)N(C(=O)OC(C)(C)C)c3cc(OCCOC)c(OCCOC)cc32)c1` (stereo not shown) [JGK001], the GI50 with GBM39 was found to be 19.7 µM; with HK301, 2.21 µM.
Turning to `C#Cc1cccc(N(C(C)=O)c2ncnc3cc(OCCOC)c(OCCOC)cc23)c1` [JGK002], the results for the GI50 with GBM39 and in the assay on HK301 were 19.8 µM and 5.45 µM, respectively.
`C#Cc1cccc(N(C(=O)OC(C)(C)C)C2=NC(OCC)N(C(=O)OC(C)(C)C)c3cc(OCCOC)c(OCCOC)cc32)c1` (stereo not shown) [JGK003]: the figures for the GI50 in the assay with GBM39 and with HK301 were 23.1 µM and 1.13 µM, respectively.
Consider `O=C(Oc1cc2ncnc(Nc3cccc(Cl)c3F)c2cc1OC(=O)c1ccccc1)c1ccccc1` [JGK004], for which the GI50 in the assay on GBM39 stood at 103 µM; in the assay with HK301 it was 23.4 µM.
On the same counts, the results for `C#Cc1cccc(Nc2ncnc3cc(OC(=O)c4ccccc4)c(OC(=O)c4ccccc4)cc23)c1` [JGK006] are 51.4 µM and 11 µM.
Regarding `C#Cc1cccc(N(C(=O)[C@H](Cc2ccccc2)NC(=O)OC(C)(C)C)c2ncnc3cc(OCCOC)c(OCCOC)cc23)c1` [JGK007], the concentration for 50% growth inhibition (GI50) in the assay with HK301 turned out to be 92.1 µM.
Take `CC(C)(C)OC(=O)N(CCS(C)(=O)=O)Cc1ccc(-c2ccc3ncnc(Nc4ccc(OCc5cccc(F)c5)c(Cl)c4)c3c2)o1` [JGK008]: the GI50 in the assay on HK301 was 81.3 µM.
For the compound `C#Cc1cccc(N(C(=O)CCCCOC(=O)CCCCOC(=O)CCCCOC(C)=O)c2ncnc3cc(OCCOC)c(OCCOC)cc23)c1` [JGK009], the GI50 with GBM39 is 14.6 µM; with HK301, 6.1 µM.
For the compound `CC(=O)N(CCS(C)(=O)=O)Cc1ccc(-c2ccc3ncnc(N(C(C)=O)c4ccc(OCc5cccc(F)c5)c(Cl)c4)c3c2)o1` [JGK011], the GI50 worked out at 3.25 µM in the assay with GBM39 and 9.21 µM in the assay on HK301.
The like results for `CC(=O)N(c1cccc(Cl)c1F)c1ncnc2cc3c(cc12)OCCO3` [JGK0012] were, in that order, 10.8 µM and 5.48 µM.
Turning to `COC1N=C(N(C(=O)OC(C)(C)C)c2cccc(Cl)c2F)c2cc3c(cc2N1C(=O)OC(C)(C)C)OCCO3` (stereo not shown) [JGK013], the GI50 in the assay on GBM39 is 220 µM; in the assay on HK301, 1.55 µM.
For the compound `CCOC(=O)N(c1cccc(Cl)c1F)c1ncnc2cc3c(cc12)OCCO3` [JGK047, Ethyl (3-chloro-2-fluorophenyl)7,8-dihydro[1,4]dioxino[2,3-g]quinazolin-4-ylcarbamate], the GI50 with HK301 worked out at 316 µM.
